The term Ki denotes the dissociation constant of the complex between target and ligand, obtained from inhibition or displacement.

Experimental findings from patent US20240016941A1, “COMBINATION THERAPY” (priority 2020, published 2024) are described below.

One experiment concerns the target purified LasB (Pseudomonas aeruginosa, UniProt P14756). Description: Inhibition of LasB-mediated hydrolysis of pro-IL-1β to IL-1β (FRET peptide). Format: biochemical. The protocol:
Hydrolysis of this FRET peptide was continuously monitored using a Victor multimode plate reader (Perkin Elmer) with excitation 355 nm and emission at 450 nm in the presence of varying concentrations of compounds of the invention. Inhibitory constants (Ki) were determined for certain compounds of the invention (at least 2 independent replicates) using a competitive inhibitor model.

The target in experiment [1] is T1, LasB elastase activity of dialysed supernatant from P. aeruginosa PAO1 (Pseudomonas aeruginosa, UniProt P14756).
T1 construct: Culture supernatants are recovered by centrifugation and filtrated through a 0.22 μM filter; endogenous in cells; host or cells: P. aeruginosa strain PAO1, culture supernatant, filtered and dialysed
T1 sequence (P14756 198-498): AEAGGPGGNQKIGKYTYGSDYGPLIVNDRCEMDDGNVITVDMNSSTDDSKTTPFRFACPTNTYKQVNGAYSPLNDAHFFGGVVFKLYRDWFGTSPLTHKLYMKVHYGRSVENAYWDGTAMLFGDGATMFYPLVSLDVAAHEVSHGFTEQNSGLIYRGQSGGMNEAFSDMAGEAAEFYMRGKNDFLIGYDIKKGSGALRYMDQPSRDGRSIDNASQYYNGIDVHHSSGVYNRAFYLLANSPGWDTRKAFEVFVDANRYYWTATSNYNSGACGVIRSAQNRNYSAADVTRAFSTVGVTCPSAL
Description: Elastin Congo-Red assay to determine % inhibition (dialysed PAO1 supernatant). Format: biochemical. The following applies: read-out: Elastin hydrolysis % inhibition @ 25 μM inhibitor concentration. The procedure:
(§1) Experiments were therefore conducted (1) to measure the potency of inhibition of compounds of the invention against purified Pseudomonas aeruginosa LasB enzyme and also experiments were conducted (2) to measure the ability of compounds of the invention to inhibit LasB-catalysed elastin degradation. The first assay uses a commercial fluorescent synthetic peptide and purified LasB enzyme. The LasB hydrolysis kinetics are measured allowing the determination of the IC50 and Ki of the inhibitors; the second is a more physiological assay using dialysed Pseudomonas aeruginosa supernatant as source of enzyme, plus its natural substrate Elastin. It is an “end point assay” that determines the percentage of LasB inhibition by each compound for one particular time point and inhibitor concentration. Technical details are described below:
The Elastin assay uses as source of enzyme dialysed supernatant from P. aeruginosa PAO1 and the Elastin Congo-Red as substrate. The natural LasB substrate, elastin, is complexed with the congo-red dye (Elastin Congo-Red, ECR). The elastolysis activity from the culture supernatant will degrade elastin and release the congo-red dye into the supernatant. This red dye release can be measured with a spectrophotometer.
Method: To determine LasB elastase activity and assess compound inhibition, an overnight culture of P. aeruginosa strain PAO1 is diluted in LB medium. After reaching an OD600nm of 0.6, this culture is diluted and incubated for additional 18-24 hours in a shaking incubator. Culture supernatants are recovered by centrifugation and filtrated through a […] filter. These supernatants are dialysed (filtration molecules <20 kDa) into a 50 mM Tris-HCl pH 7.4, 2.5 mM CaCl2 solution at 4° C. under agitation for 24 hours. Supernatant dialysed is then mixed volume/volume with the ECR suspension (20 mg/mL of ECR in 100 mM Tris-HCl pH 7.4 buffer supplemented with 1 mM CaCl2)) supplemented with Triton X100 (final concentration of 0.01%) in presence of DMSO (positive control) and/or different concentrations of compound (routinely 50 to 1.56 μM). As a negative control, the dialysed supernatant is replaced by Tris-HCl solution (50 mM Tris-HCl pH 7.4, 2.5 mM CaCl2). The mixed reaction is then incubated overnight in a 37° C. shaking incubator. The reaction supernatant is recovered by centrifugation and the release of congo-red is measured by its absorbance at 495 nm (OD495nm).
Percentage inhibition is determined using the following equation:
((OD495 nm value of positive control−OD495nm value of negative control)−(OD495nm value of treated supernatant−OD495nm value of negative control))/(OD495nm value of positive control−OD495nm value of negative control)×100.

The target in experiment [2] is T2, purified LasB protein from P. aeruginosa (Pseudomonas aeruginosa, UniProt P14756).
T2 construct: purchased Merck or Charles River Laboratories
T2 sequence (P14756 198-498): as above
Briefly: Fluorometric assay to determine Ki (purified LasB, Abz-Ala-Gly-Leu-Ala-p-Nitro-Benzyl-Amide substrate). In kind it is biochemical. The protocol: as §1
This assay uses commercially available substrate (Abz-Ala-Gly-Leu-Ala-p-Nitro-Benzyl-Amide (Ex: 340 nm, Em: 415 nm) from Peptide International) and purified LasB protein from P. aeruginosa (provided by Merck or Charles River Laboratories). It is performed to determine LasB elastase activity and assess compound inhibition in 96-well plate format. All compounds of Formula (I) were assessed using the method described below.
Method: 10 to 140 ng/ml purified LasB is incubated with 250 μM Abz-Ala-Gly-Leu-Ala-p-Nitro-Benzyl-Amide in 50 mM Tris-HCl pH 7.4, 2.5 mM CaCl2), 0.01% of Triton X100 at 37° C. LasB activity (corresponding to fluorescence emission induced by substrate hydrolysis) is measured over 30 min at 37° C. with a fluorescence plate reader such as the Perkin Elmer Envision or similar. Different range of inhibitor concentrations are routinely assessed depending of inhibitor potency from 0.0016 to 200 μM (2-fold dilutions series) in order to determine IC50.
The equation used to calculate the Ki from IC50 is: Ki=IC50/(1+([S]/Km)) where [S]=250 μM and Km=214 μM.

A further experiment relates to F508del-CFTR cells. Briefly: Forskolin-activated CFTR response in CF-mutant human bronchial epithelial cells (membrane potential dye). Format: cell-based. The protocol:
This example describes experiments showing that LasB impacted CFTR function in CF mutant cells can be mitigated by treatment with CFTR modulators and LasB inhibitors.
Wild Type human bronchial epithelial (HBE) cells and CF-mutant human bronchial epithelial cells (F508del-CFTR) are grown at 37° C. for 5 days and loaded onto 96-well plate cultures. The cells are loaded with blue membrane potential dye dissolved in chloride-free buffer. The plate is read in a fluorescence plate reader at 37° C. (excitation: 530 nm; emission; […]). CFTR is stimulated with forskolin.
A control signal defined as 100% transmission is obtained from WT human bronchial epithelial cells alone. A minor suppression of forskolin-activated CFTR response is expected for such WT cells in the presence of LasB.
Moderate suppression in the forskolin-activated CFTR response will be observed for CF-mutant cells. This moderate suppression will be reduced by addition of a CFTR modulator such as VX-809 (lumacaftor).
Substantial suppression in the forskolin-activated CFTR response is expected for CF-mutant cells in the presence of LasB, even following the addition of a CFTR modulator, due to the deleterious effect of LasB on expressed CFTR protein.

Chain of purified LasB (P14756 198-498): as above

As for `COc1cc2sc(CNC(=O)C3(CC(=O)O)Cc4ccccc4C3)nc2cc1OCCN1CCOCC1` [Example 9, 2-[2-[[6-methoxy-5-(2-morpholinoethoxy)-1,3-benzothiazol-2-yl]methylcarbamoyl]indan-2-yl]acetic acid], the Ki at purified LasB is 0.16 µM; in experiment [2] it was < 0.05 µM. Moreover, the inhibition at 25 µM in experiment [1] was > 80%.
Taken in the same sequence, the figures for `COc1cc2sc(CNC(=O)C3(CC(=O)O)Cc4cc(F)c(F)cc4C3)nc2cc1OCC1CCN(C)CC1` [Example 11, 2-[5,6-difluoro-2-[[6-methoxy-5-[(1-methyl-4-piperidyl)methoxy]-1,3-benzothiazol-2-yl]methylcarbamoyl]indan-2-yl]acetic acid] were 0.22 µM, < 0.05 µM and > 80%.
As to `COc1cc2sc(CNC(=O)C3(CC(=O)[O-])Cc4cc(F)c(F)cc4C3)nc2cc1OCCC[N+]1(C)CCCC1` [Example 19, 2-[5,6-difluoro-2-[[6-methoxy-5-[3-(1-methylpyrrolidin-1-ium-1-yl)propoxy]-1,3-benzothiazol-2-yl]methylcarbamoyl]indan-2-yl]acetate], the Ki was 0.27 µM on purified LasB and < 0.05 µM in experiment [2]. In experiment [1], the inhibition at 25 µM was > 80%.
The corresponding values for `COc1cc2sc(CNC(=O)C3(CC(=O)[O-])Cc4ccccc4C3)nc2cc1OCCC[N+](C)(C)CCO` [Example 20, 2-[2-[[5-[3-[2-hydroxyethyl(dimethyl)ammonio]propoxy]-6-methoxy-1,3-benzothiazol-2-yl]methylcarbamoyl]indan-2-yl]acetate] are 0.34 µM, < 0.05 µM and 60 to 80%.
Taken in the same sequence, the figures for `COc1cc2sc(CNC(=O)C3(CC(=O)[O-])Cc4ccccc4C3)nc2cc1OCCC[N+](C)(CCO)CCO` [Example 22, 2-[2-[[5-[3-[bis(2-hydroxyethyl)-methyl-ammonio]propoxy]-6-methoxy-1,3-benzothiazol-2-yl]methylcarbamoyl]indan-2-yl]acetate] were 0.4 µM, < 0.05 µM and 60 to 80%.
Turning to `COc1cc2sc(CNC(=O)C3(CC(=O)[O-])Cc4cc(F)c(F)cc4C3)nc2cc1C(=O)N1CC([N+](C)(C)C)C1` [Example 43, 2-[5,6-difluoro-2-[[6-methoxy-5-[3-(trimethylammonio)azetidine-1-carbonyl]-1,3-benzothiazol-2-yl]methylcarbamoyl]indan-2-yl]acetate], the inhibition at 25 µM in experiment [1] was in the range of 60 to 80%. The molecule further had a Ki in experiment [2] of 0.05 to 0.2 µM.
Turning to `COc1cc2sc(CNC(=O)C3(CC(=O)[O-])Cc4cc(F)c(F)cc4C3)nc2cc1OCC1CC[N+](C)(C)CC1` [Example 44, 2-[2-[[5-[(1,1-dimethylpiperidin-1-ium-4-yl)methoxy]-6-methoxy-1,3-benzothiazol-2-yl]methylcarbamoyl]-5,6-difluoro-indan-2-yl]acetate], the figures for the Ki (on purified LasB; in experiment [2]) were 0.3 µM and < 0.05 µM, respectively. Also, the inhibition at 25 µM in experiment [1] was > 80%.
Take `COc1cc2sc(CNC(=O)C3(CC(=O)O)Cc4ccccc4C3)nc2cc1S(=O)(=O)N1CCN(C)CC1` [Example 45, 2-[2-[[6-methoxy-5-(4-methylpiperazin-1-yl)sulfonyl-1,3-benzothiazol-2-yl]methylcarbamoyl]indan-2-yl]acetic acid]: in experiment [1], the inhibition at 25 µM was in the range of 60 to 80%. Moreover, the Ki in experiment [2] lay in the range of 0.05 to 0.2 µM.
Taken in the same sequence, the figures for `COc1cc2sc(CNC(=O)C3(CC(=O)O)Cc4ccccc4C3)nc2cc1S(=O)(=O)N1CCC(N(C)C)CC1` [Example 46, 2-[2-[[5-[[4-(dimethylamino)-1-piperidyl]sulfonyl]-6-methoxy-1,3-benzothiazol-2-yl]methylcarbamoyl]indan-2-yl]acetic acid] were 60 to 80% and 0.05 to 0.2 µM.
Taken in the same sequence, the figures for `COc1cc2sc(CNC(=O)C3(CC(=O)[O-])Cc4ccccc4C3)nc2cc1S(=O)(=O)N1CCC([N+](C)(C)C)CC1` [Example 47, 2-[2-[[6-methoxy-5-[[4-(trimethylammonio)-1-piperidyl]sulfonyl]-1,3-benzothiazol-2-yl]methylcarbamoyl]indan-2-yl]acetate] were 60 to 80% and 0.05 to 0.2 µM.
Taken in the same sequence, the figures for `N#Cc1ccc2nc(CNC(=O)C3(CC(=O)O)Cc4ccccc4C3)sc2c1` [Example 48, 2-[2-[(6-cyano-1,3-benzothiazol-2-yl)methylcarbamoyl]indan-2-yl]acetic acid] were 60 to 80% and 0.05 to 0.2 µM.
Consider `N#Cc1ccc2sc(CNC(=O)C3(CC(=O)O)Cc4ccccc4C3)nc2c1` [Example 49, 2-[2-[(5-cyano-1,3-benzothiazol-2-yl)methylcarbamoyl]indan-2-yl]acetic acid], for which the inhibition at 25 µM in experiment [1] fell in the range of 60 to 80%. The molecule also showed a Ki in experiment [2] of 0.05 to 0.2 µM.
As for `COc1cc2sc(CNC(=O)C3(CC(=O)[O-])Cc4cc(F)c(F)cc4C3)nc2cc1OCCOCC[N+](C)(C)C` [Example 55, 2-[5,6-difluoro-2-[[6-methoxy-5-[2-[2-(trimethylammonio)ethoxy]ethoxy]-1,3-benzothiazol-2-yl]methylcarbamoyl]indan-2-yl]acetate], the Ki at purified LasB was 0.42 µM; in experiment [2] it was < 0.05 µM.
`Cc1ccc(NC(=O)C2(c3ccc4c(c3)OC(F)(F)O4)CC2)nc1-c1cccc(C(=O)O)c1` [VX-809, lumacaftor, reference compound]: the figures for the “Maximum forskolin-activated response of CFTR channels compared to WT human bronchial epithelial cells” value in the experiment on F508del-CFTR cells (F508del-CFTR cells + 10 μM VX-809) and in the experiment with F508del-CFTR cells (F508del-CFTR cells + 10 μM VX-809 + 0.01 μM LasB) were “Minor suppression of CFTR” and “substantial suppression of CFTR”, respectively.
